One data set concerns open wound of skin. Nature of the data set: Open wound healing by intravenous preinfusion before punch biopsy. Format: in vivo, Wistar rats. Here is the method: Then, we (the present inventors) have examined whether intravenous administration of ginsenoside Rb1 before preparation of open wound of skin can promote regeneration and/or reconstruction of the skin tissue. For that purpose, ginsenoside Rb1 (12 μg) dissolved in physiological saline was intravenously administered once into male Wistar rats (body weight about 300 g), under inhalation anesthesia, subsequently, continuous intravenous infusion of ginsenoside Rb1 (12 μg/day) was conducted for 4 days by using an Alza osmotic minipump. Thereafter, the punch biopsy with diameter 6 mm was performed in the dorsal skin region of animals under inhalation anesthesia to make open wound, and simultaneously, ginsenoside Rb1 was continuously infused intravenously for 3 days.
An equal amount of physiological saline was administered intravenously in the control animals, for which the same open wound was prepared to leave the animals as they were.
On day 2 after finishing continuous intravenous administration of ginsenoside Rb1 or physiological saline (i.e. on day 5 after preparation of the open wound), the animals were anesthetized with pentobarbital and fixed transcardially with perfusion of 0.1 M phosphate buffer containing 4% paraformaldehyde. Thereafter, the skin tissue including the open wound was dissected out, post-fixed and embedded in paraffin according to the conventional method. Paraffin sections 5 μm thick were cut and stained with hematoxylin-eosin (HE). FIG. 3 is a photograph in place of drawing. […] “i” indicates incrustation or eschar, “ep” indicates stratified squamous epithelium of epidermis, and “by” indicates blood vessel.
Intravenous administration of physiological saline solution containing ginsenoside Rb1 (12 μg) was conducted once in male Wistar rats weighing about 300 g under inhalation anesthesia, subsequently, ginsenoside Rb1 was continuously infused intravenously for 4 days through an Alza osmotic minipump at a dose of 12 μg/day. […]

The subject of a further data set is cuttings of pothos. Nature of the data set: Hydroponic culture of cuttings of pothos (rooting). Set-up: species or system pothos (Epipremunum aureum, golden pothos). The note with it: 100 fg/ml in water. The protocol: Next, we have examined whether ginsenosides, especially ginsenoside Rb1, can promote generation, regeneration or reconstruction of not only skin tissue or mouth mucosal tissue but also plant tissues. For that purpose, one of foliage plants, pothos is selected. Six cuttings resembled with each other from the parent plant of pothos in the room of one of the inventors (Tanaka) were collected. Among them, 3 cuttings were cultured by hydroponics with the use of only water and the remaining three were cultured in water containing ginsenoside Rb1 at a concentration of 100 fg/ml. FIG. 9 is a photograph in place of drawing.
Then, we have further continued cultivation of the above cuttings with hydroponics and on day 22, again photographs were taken. FIG. 10 is a photograph in place of drawing. Left photograph in FIG. 10 is the cuttings of pothos cultured with only water for 22 days and right photograph in FIG. 10 is the cuttings cultured with water containing the low concentration of ginsenoside Rb1 (100 fg/ml). Waters with or without containing ginsenoside Rb1 for hydroponics were exchanged once in a week. We have further made observation of rooting region on day 27.
Next, we have examined whether a crude saponin fraction of ginseng, like ginsenoside Rb1 at low concentrations, can promote, generation, regeneration or reconstruction of the cutting of pothos. For that purpose, two cuttings resembled with each other from the parent plant of pothos were collected. Among them, the one cutting was cultured with only water and the remaining one was cultured in water containing the crude saponin fraction of ginseng at a concentration of 1450 fg/ml. FIG. 11 is a photograph in place of drawing. Left photograph in FIG. 11 is the cutting cultured with only water and right photograph in FIG. 11 is the cutting cultured with water containing the crude saponin fraction of ginseng (1450 fg/ml). […]

The next data set has as its system Bcl-xL gene. The note with it: continuous intravenous administration 60 μg/day; cited from earlier work.
Data set [1] relates to permanent occlusion of the cortical branch of the middle cerebral artery. The note with it: infused into the cerebroventricles of cerebral infarcted rats; cited from earlier work.
For another data set, the system named is skin fibroblast. The note with it: extracellular concentration 10 μg/ml; cited from earlier work.

The values that follow come from patent US20030104079A1, “Skin tissue regeneration promoters comprising ginsenoside Rb1” (Japan Science and Technology Corporation, Japan, priority 2000, published 2003).

As for `CC(C)=CCC[C@](C)(O[C@@H]1O[C@H](CO[C@@H]2O[C@H](CO)[C@@H](O)[C@H](O)[C@H]2O)[C@@H](O)[C@H](O)[C@H]1O)[C@H]1CC[C@]2(C)[C@@H]1[C@H](O)C[C@@H]1[C@@]3(C)CC[C@H](O[C@@H]4O[C@H](CO)[C@@H](O)[C@H](O)[C@H]4O[C@@H]4O[C@H](CO)[C@@H](O)[C@H](O)[C@H]4O)C(C)(C)[C@@H]3CC[C@]12C` [ginsenoside Rb1], the “regeneration, generation and reconstruction of ruptured and excised blood vessels (FIG. 3)” value with open wound of skin (12 μg/day iv 4 days before and 3 days after open wound, day 5 after open wound) was “facilitated”. The “regeneration and reconstruction of skin tissue (FIG. 3)” value in the data set with open wound of skin (12 μg/day iv 4 days before and 3 days after open wound, day 5 after open wound, vs physiological saline) was “regeneration and reconstruction of skin tissue were obviously promoted”. Further, the “effect on healthy tissues, ginsenoside Rb1-administered vs physiological saline-administered case” value in the data set on open wound of skin (continuous intravenous administration of low dosages) was “no clear difference was observed”. Moreover, in the data set with cuttings of pothos (22 days), the “generation or regeneration of roots (FIG. 10)” value is on record as “many roots were generated or regenerated”. Moreover, in the data set with cuttings of pothos (day 13, vs water alone), the “growth of root (FIG. 9)” value is recorded as “growth of root is promoted”. Further, the “secondary rooting arising from the primary rooting regions” value in the data set on cuttings of pothos (day 27, none on cuttings in water only) is “clearly observed on all three cuttings”. Also, the “expression of cell death-suppressing factor Bcl-xL gene in brain and nervous tissues” value in the data set on Bcl-xL gene is “caused an increase in the expression”. For the same compound, the “cerebral infarction and place navigation disability” value in data set [1] is “cerebral infarction-reducting effect and place navigation disability-improving effect were observed”. Moreover, in the data set on skin fibroblast, the production of elastin result is “can promote production of elastin in the skin fibroblast”.
